According to doi:10.1101/2023.09.07.556657v1 (biorxiv, 2023):

Biological target: T1, Cf-SGBP-CBMxxIV (Christiangramia forsetii, UniProt A0M709)
T1 sequence (A0M709 740-904): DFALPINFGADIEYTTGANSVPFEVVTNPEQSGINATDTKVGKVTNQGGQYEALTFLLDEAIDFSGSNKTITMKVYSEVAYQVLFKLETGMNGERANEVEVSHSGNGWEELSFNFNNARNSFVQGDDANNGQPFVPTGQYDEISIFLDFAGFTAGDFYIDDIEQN
Assay: isothermal titration calorimetry
Format: binding
Details: 293.15 K, pH 7.8, 10 mM MOPS, 100 mM NaCl; single-site model

Row | SMILES | Ka
1 | OC[C@H]1O[C@@H](O[C@@H]2[C@@H](O)[C@H](O[C@@H]3[C@@H](O)[C@H](O[C@@H]4[C@@H](O)[C@H](O[C@@H]5[C@@H](O)[C@H](O[C@@H]6[C@@H](O)[C@H](O[C@H]7[C@H](O)[C@@H](CO)OC(O)[C@@H]7O)O[C@H](CO)[C@H]6O)O[C@H](CO)[C@H]5O)O[C@H](CO)[C@H]4O)O[C@H](CO)[C@H]3O)O[C@H](CO)[C@H]2O)[C@H](O)[C@@H](O)[C@@H]1O (some centres unmarked) [DP7, laminariheptaose] | 1.87 (± 0.17) x10^4
2 | OC[C@H]1O[C@@H](O[C@@H]2[C@@H](O)[C@H](O[C@@H]3[C@@H](O)[C@H](O[C@@H]4[C@@H](O)[C@H](O[C@H]5[C@H](O)[C@@H](CO)OC(O)[C@@H]5O)O[C@H](CO)[C@H]4O)O[C@H](CO)[C@H]3O)O[C@H](CO)[C@H]2O)[C@H](O)[C@@H](O)[C@@H]1O (some centres unmarked) [DP5, laminaripentaose] | 1.39 (± 0.07) x10^4
